Measurements taken from a melting point compilation (Tetko et al.; mined from patent text by program, amines drawn as free bases though some values may be those of a salt).

Compound `Oc1ncccc1C1(O)CCN(CC23CC(c4ccccc42)c2ccccc23)CC1` has a melting point of 195 to 199 °C. `COc1ccc(C2CNCc3c2ccc(OC)c3C)cc1OC` (centres undefined) gave a melting point of 128 to 129 °C. Work on `CN1CC(CNN)CC2c3cccc4c3c(cn4C)CC21` (centres undefined) yielded a melting point of 102 to 103 °C. `COc1cc2c(cc1OC)Nc1nccn1C2` gave a melting point of 215 to 217 °C. In the case of `O=C1NCCC[C@@H]1NS(=O)(=O)c1cccc(C(F)(F)F)c1`, the melting point is reported as 158 to 160 °C. `COc1cc(-c2nc3ccc(OCCCN(C)C)cc3n2Cc2ccccc2Br)cc(OC)c1OC` showed a melting point of 141 °C. With `CCOC(=O)c1cccc(Oc2ncccc2OCCCc2ccncc2O)c1` the melting point was 76 to 79 °C. `COc1cc2c(cc1OC)CN(C(=O)C13CC4CC(CC(C4)C1)C3)CC2` showed a melting point of 151 to 155 °C. With `C#Cc1ccnc(-c2cc(N)c(C#Cc3ccc(C(C)=S)cc3)cc2[N+](=O)[O-])c1` the melting point was 185 to 188 °C. `Cc1cc(O)ccc1N1CCc2c1c1cccc(C)c1[nH]c2=O` gave a melting point of 244 to 246 °C. `Nc1sc2c(c1C(=O)c1ccc(Br)s1)CCCC2` gave a melting point of 160 to 163 °C. `CC(C)(C)OC(=O)N1CCC(n2nnc(-c3cnc(-c4ccccc4)nc3)n2)CC1` gave a melting point of 178 to 180 °C. `CN1CC(COC2c3ccccc3CCn3cc(I)nc32)C1` (centres undefined) gave a melting point of 100 °C. With `COc1cc(C(=O)O)ccc1Cc1cn(C)c2ccc(CCNC(=O)N(C)C)cc12` the melting point was 195 to 196 °C. Work on `CCOC(CN1C(=O)C2=C(c3ccc(Br)cc3)N(CC(OCC)OCC)C(=O)C2=C1c1ccc(Br)cc1)OCC` yielded a melting point of 198 to 201 °C. For `CC(C)=NOCc1nc2c(N)nc(C)c(C)c2n1CCCCNC(=O)c1ccccc1`, the melting point was 206 to 208 °C. Compound `Clc1ccc(-c2nc(-c3ccccc3)sc2CBr)cc1` has a melting point of 108 to 109 °C. Compound `S=C=Nc1ccc2sc(-c3cccnc3)nc2c1` has a melting point of 160 to 162 °C. Compound `COC(=O)c1cc(Cl)cc(C(F)(F)F)n1` has a melting point of 62 to 63 °C. `COc1ccc(OCC(O)CN2CCC(Nc3nc4c(C)cccc4n3Cc3nc(C)ccc3O)CC2)cc1` (centres undefined) showed a melting point of 227 °C. With `Cc1ccc2[nH]cc(C3=C(c4c[nH]c5ccc(C)cc45)C(=O)N(C)C3=O)c2c1` the melting point was 270 to 275 °C. `O=C(Nc1nc(-c2ccc([N+](=O)[O-])cc2)cs1)OCC(Cl)(Cl)Cl` gave a melting point of 207 to 209 °C. For `CCC[C@H]1CC[C@H](c2ncc(C(N)=O)cn2)CC1`, the melting point was 234 to 235 °C. `CN(c1cccc2cc(C(=O)O)[nH]c12)S(=O)(=O)c1ccccc1C(F)(F)F` showed a melting point of 211 to 212 °C. Compound `O=C(O)Cn1c(-c2ccccc2)c(Cc2nc3c(F)c(F)cc(F)c3s2)c2ccccc21` has a melting point of 238 to 239 °C. With `COc1ccc(S(=O)(=O)N2c3cc(Br)sc3-c3ccccc3[C@H]2C)cc1` the melting point was 136 to 138 °C. `N#Cc1ccc(C=O)c(-c2ccccc2)c1` showed a melting point of 75 °C. Work on `COCCOc1ccc(CCC(=O)NS(=O)(=O)c2ccc(OC)cc2)c(Oc2ncc(C(F)(F)F)cc2Cl)c1` yielded a melting point of 118 to 120 °C. For `COc1ccc(CC(=O)NC(NC(Cc2cccnc2C)=NC#N)C(C)(C)C)cc1OC` (centres undefined), the melting point was 164 to 165 °C. Compound `CSc1nc(C)ccc1NC(=O)CCCCCSc1nc2ccccc2s1` has a melting point of 122 to 123 °C. In the case of `Cc1ccc(O)c2c1C(=O)C(=O)N2Cc1ccccc1`, the melting point is reported as 255 to 262 °C. With `Nc1cccc(C(=O)Nc2ccc(-c3c[nH]c(=O)cn3)cc2)c1` the melting point was over 250 °C. `Nc1ccn2nc(N3CCCC3)nc2c1` showed a melting point of 221 to 225 °C. Work on `COc1cccc(CNC(=O)c2nc3scc(CC(=O)Nc4ccc(C(=O)O)cc4)c3c(=O)[nH]2)c1` yielded a melting point of 279 °C. Work on `Cc1cc(C)cc(COC[C@@H](NC(=O)OC(C)(C)C)c2ccccc2)c1` yielded a melting point of 46 to 49 °C. Compound `COC(=O)c1coc2cc(Oc3cc(COCc4ccccc4)ncn3)ccc12` has a melting point of 85 to 86 °C. In the case of `Cc1c(Nc2c(C#N)cnc3sccc23)ccc2[nH]ccc12`, the melting point is reported as 255 °C. In the case of `COc1ccc2c3c(c(=O)oc2c1)CN(Cc1ccc(C)cc1)CC3`, the melting point is reported as 147 to 149 °C. For `COCCOc1cc2ncnc(NC3=CC(=O)C(N(C)c4ccc(OC)cc4)=CC3=O)c2cc1OC`, the melting point was 197 to 198 °C. For `O=S(=O)(c1cccc2c(Cl)cccc12)N1CC2CCC(CC2)C1`, the melting point was 105 to 106 °C. With `CO[C@H]1[C@H](N2CCCC2)c2cc(C#N)ccc2OC1(C)C` (relative stereo) the melting point was 108 to 109 °C. `CCSC(=O)c1c(C(F)(F)F)nc(C(F)F)c(C(=O)OC)c1NC(C)C` showed a melting point of 56 to 59 °C. For `COC(=O)C(C)(C)CCCOc1cc(C)c(OC(=O)Nc2c(C(C)C)cccc2C(C)C)cc1C`, the melting point was 111 to 112 °C. With `COC(=O)CCCCCOc1ccc(NC(=O)CCCCCOCc2ccccc2)cc1` the melting point was 64 to 65.6 °C. With `O=C1CCCCc2cc(OCc3ccccc3)c(O)cc21` the melting point was 127 to 128 °C. Work on `Cc1cc(C)c2c(c1)cc(C(=O)O)n2CC(=O)OC(C)(C)C` yielded a melting point of 210 °C. Work on `Cc1nc2c(N)nc3c(c2n1CCOCCS(C)(=O)=O)CCCC3` yielded a melting point of 173 to 175 °C. `CN(Cc1ccc2c(Br)c(OCc3nnn[nH]3)ccc2c1)C(=O)c1cn(C)c2ccccc12` gave a melting point of 227 to 228 °C. `COC1OC(CO)C(O)C(NC(=O)N(C)N=O)C1O` (centres undefined) showed a melting point of 116 to 117 °C. `CC1(C(=O)N2CCOCC2)COC(c2nc(-c3ccc(F)cc3)c(-c3ccnc(S(C)(=O)=O)n3)[nH]2)OC1` (centres undefined) showed a melting point of 264 to 266 °C. `Clc1nc(-c2nnc(Oc3ccccc3)o2)[nH]c1Cl` showed a melting point of 109 °C. In the case of `CC(=O)Nc1cccc(/C=C/C(=O)O)c1C`, the melting point is reported as 265 to 267 °C. `Cc1cccc(CC(=O)N2C[C@@H]3C(=O)CCC(c4ccccc4)(c4ccccc4)[C@@H]3C2)c1` (racemic) gave a melting point of 184 °C. Compound `O=C(O)Cc1ccc(N2CC3CCCCC3C2=O)cc1` (centres undefined) has a melting point of 157 to 159 °C. For `CCCCc1nc(SC)c[nH]1`, the melting point was 64 °C. Work on `Cn1c(SCc2ccccc2)nc2cnc3ccccc3c21` yielded a melting point of 160 to 163 °C. With `CC(C)C(=O)Nc1ccn2nc(-c3ccccc3)c(-c3ccc(=O)n(C(C)C)n3)c2c1` the melting point was 199 to 200 °C. With `CN(C)C(=O)Nc1ccc(OCc2nc(Cl)ccc2Cl)cc1` the melting point was 162 °C. `Cc1nc2cnc(Nc3ccc(N4CCNCC4)cn3)nc2n(C2CCCC2)c1=O` showed a melting point of 221 to 223 °C. Work on `OCc1ccc(-c2ccc3nnn(Cc4ccc5ncccc5c4)c3n2)cc1` yielded a melting point of 187 to 189 °C. `C=C1CN(c2c(F)cc3c(=O)c(C(=O)O)cn(C4CC4)c3c2F)CC1NC` (centres undefined) gave a melting point of 239 to 243 °C. `CCOC(=O)c1cc(-c2ccc(OC)cc2)n(-c2ccc(OC)cc2)n1` gave a melting point of 97 to 98 °C. With `CCOC(=O)C1=C(N)NC(N)=C(C(=O)OCC)C1c1cccc2ccccc12` the melting point was 162 to 163 °C. Compound `Cc1oc(-c2ccc3ccccc3c2)nc1C=Cc1ccc(/C=C/C=O)cc1` has a melting point of 213 to 214 °C. Compound `COC(=O)C(CO)NS(=O)(=O)c1ccc(Oc2ccncc2)cc1` (centres undefined) has a melting point of 137 to 139 °C. For `CC1(C)Oc2c([N+](=O)[O-])ccc(Cl)c2C1Br` (centres undefined), the melting point was 103 to 104 °C. Compound `COC(=O)c1nc2cccc(Cl)c2c(O)c1C(=O)OC` has a melting point of 174 to 176 °C. In the case of `COc1ccc2c(c1)sc1nc(Nc3ccccc3)nc(=Nc3ccccc3)n12`, the melting point is reported as 213 to 214 °C. Compound `O=C(O)CCc1cc2ccccc2s1` has a melting point of 140 to 142 °C. `C=C(C)C(=O)NCC(OC)OC` showed a melting point of 30 to 32 °C. For `O=S1(=O)c2cccc3cccc(c23)N1CCCN1CCC(n2c(O)nc3ccccc32)CC1`, the melting point was 253 °C. In the case of `CCCc1cn(C(C)(C)C(=O)N(C)C)nc1-c1ccccc1Cl`, the melting point is reported as 64 to 66 °C. For `CC(C)(C)CC(C)(C)c1ccc(Oc2cc3nc(-c4ccco4)oc3cc2[N+](=O)[O-])cc1`, the melting point was 146 to 148 °C. `Nc1ccc(C#Cc2ccccc2)c(-c2cc(N)ccc2C#Cc2ccccc2)c1` gave a melting point of 159 to 161 °C. `NC(=O)c1ccnn1-c1ccc(Oc2ccccc2)cc1` showed a melting point of 142 to 144 °C. `O=C(O)[C@@H](O)Cc1ccc(O)c([N+](=O)[O-])c1` gave a melting point of 111 °C. For `CC(C)c1nc(C(C)C)c(CC=Cc2ccccc2)c(-c2ccc(F)cc2)c1CO`, the melting point was 72 to 73 °C. For `CCc1cc(N(C)C(=O)N2CCN(c3cc(OC)cc(OC)c3)CC2)c(OC)nc1C`, the melting point was 78 to 79 °C. With `CC(C)n1nc(-c2sc(NC(=O)c3ccc(CN4CCCCC4)cc3)nc2-c2ccccc2)ccc1=O` the melting point was 136 to 138 °C. Compound `CCOP(=O)(OCC)N1CCN(c2cc3c(cc2F)c(=O)c(C(=O)OCCOC)cn3C2CC2)CC1` has a melting point of 138 to 141 °C. In the case of `CC12NCCCN1C(=O)c1ccccc12` (centres undefined), the melting point is reported as 64.5 °C. `COC(=O)c1ccc(-c2ccc(Cl)cc2)[nH]1` showed a melting point of 177 to 179 °C. Compound `Nc1nnc(-c2ccc3ncn(-c4ccc(OC(F)(F)F)c(Cl)c4)c3c2)o1` has a melting point of 238 to 239 °C. With `CC(=O)NCC(C)(C)c1ccc2nc(-c3ccc(C)cc3)[nH]c2c1` the melting point was 230 to 232 °C. In the case of `COc1ccc(C2=NC[C@@H](OC(=O)Nc3ccccc3)[C@H](c3ccccc3)O2)cc1` (racemic), the melting point is reported as 132 °C. Compound `C=C1N(CCC)C(=O)OC12CCN(Cc1ccccc1)CC2` has a melting point of 70 to 71 °C. Work on `Cc1ccccc1-c1cc(N2CCN(C)CC2)ncc1N(C)C(=O)C(C)(C)c1cc(C(F)(F)F)cc(C(F)(F)F)c1` yielded a melting point of 155 to 157 °C. Compound `CS(=O)(=O)c1c(C#N)nn(-c2c(Cl)cc(C(F)(F)F)cc2Cl)c1-n1cccc1` has a melting point of 200 to 202 °C. Compound `CC1(C)OC=C(CS(=O)(=O)c2ccc(F)cc2)C1=O` has a melting point of 159 to 160 °C. Compound `N#Cc1cccc(-c2ccc3c(c2)C2(CCCCC2)C(=NO)N3)c1` has a melting point of 198 to 200 °C. For `COC(=O)c1cc(C(=O)NC(C)C(=O)OC)c2ccc(Cc3ccc(F)cc3)nc2c1O` (centres undefined), the melting point was 157 to 158 °C. Compound `CNC(=O)/C(=N/OC)c1ccccc1COc1cccc(OC)n1` has a melting point of 81 to 82 °C. `COc1ccc2cc(CNC(=O)c3oc4ccccc4c3C)ccc2c1Br` showed a melting point of 154 to 156 °C. In the case of `CCCOCCOC(=O)C1=C(C)NN=C(CC)C1c1cccc([N+](=O)[O-])c1` (centres undefined), the melting point is reported as 76 °C. With `CC1Nc2cc(Br)ccc2NC1=O` (centres undefined) the melting point was 133 to 135 °C. `CC1(C)COc2cc(Cl)c(Cl)cc2C(O)(c2ccccn2)C1` (centres undefined) gave a melting point of 128 °C. `O=S1(=O)N=C2CCCN2c2ccc(Oc3cccc(-c4ccoc4)c3)cc21` showed a melting point of 128 to 132 °C. In the case of `COc1ccc(N2C(=O)CCN(C)c3ccc(Cl)cc32)cc1`, the melting point is reported as 144 to 145 °C. For `CCOC(=O)c1c(N)c2ccc(C)nc2n(CC)c1=O`, the melting point was 196 to 198 °C.
